What was measured:
[1] = Photostability under continuous xenon lamp radiation (half-life time of absorption); conditions: aqueous solution, compared with benzophenone 4 under the same conditions
[2] = Anti-free radical activity (NADH/PMS superoxide, NBT reduction); format: biochemical; conditions: 1% solution in propylene glycol vs 0.1% rutin
From the text: Anti-Free Radical Activity (determined according to V. Ponti, M. U. Dianzani, K. Cheeseman and T. F. Slater, Cehm--Biol interaction, 23 (1978) 281-291).
Superoxide anions are generated by the reaction of NADH (Nicotinamide Adenine Dinucleotide in a reduced form) with PMS (Phenazine Methosulphate). The superoxide anions reduce NBT (Nitro Blue Tetrazolium) to diformazan which is violet-blue in colour.
The appearance of reduced NBT is monitored over time using a spectrophotometer. The results are represented in FIG. 3a.
The anti-free radical activity of the extracts is expressed as rutin equivalent for a 50% inhibition.
Anti-Free Radical Activity Determined in vitro (V. Ponti, M. U. Dianzani, K. Cheeseman and T. F. Slater, Chem. Biol. interaction, 23, 281-291, 1978).
The anti-free radical activity of the extracts is expressed in rutin equivalent for a 50% inhibition.

pancreatic elastase = pancreatic elastase (Sus scrofa, UniProt P00772); assay: Anti-elastase activity (MeO Suc-Ala-Ala-Pro-Val-pNa substrate)
Sequence of pancreatic elastase (P00772 27-266): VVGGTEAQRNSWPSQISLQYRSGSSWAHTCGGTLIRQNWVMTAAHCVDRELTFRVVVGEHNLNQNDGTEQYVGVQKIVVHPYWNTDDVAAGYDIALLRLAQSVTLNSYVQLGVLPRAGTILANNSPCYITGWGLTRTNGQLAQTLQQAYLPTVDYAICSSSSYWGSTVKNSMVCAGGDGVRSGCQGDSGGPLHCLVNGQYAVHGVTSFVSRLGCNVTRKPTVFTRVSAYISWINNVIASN

Solubility = format: physicochemical
[3] = UV light absorption spectrum; format: physicochemical
[4] = target: Clostridium histolycum collagenase (Hathewaya histolytica, UniProt Q46085); assay: biochemical
Sequence of Clostridium histolycum collagenase (Q46085 41-1021 limits assumed): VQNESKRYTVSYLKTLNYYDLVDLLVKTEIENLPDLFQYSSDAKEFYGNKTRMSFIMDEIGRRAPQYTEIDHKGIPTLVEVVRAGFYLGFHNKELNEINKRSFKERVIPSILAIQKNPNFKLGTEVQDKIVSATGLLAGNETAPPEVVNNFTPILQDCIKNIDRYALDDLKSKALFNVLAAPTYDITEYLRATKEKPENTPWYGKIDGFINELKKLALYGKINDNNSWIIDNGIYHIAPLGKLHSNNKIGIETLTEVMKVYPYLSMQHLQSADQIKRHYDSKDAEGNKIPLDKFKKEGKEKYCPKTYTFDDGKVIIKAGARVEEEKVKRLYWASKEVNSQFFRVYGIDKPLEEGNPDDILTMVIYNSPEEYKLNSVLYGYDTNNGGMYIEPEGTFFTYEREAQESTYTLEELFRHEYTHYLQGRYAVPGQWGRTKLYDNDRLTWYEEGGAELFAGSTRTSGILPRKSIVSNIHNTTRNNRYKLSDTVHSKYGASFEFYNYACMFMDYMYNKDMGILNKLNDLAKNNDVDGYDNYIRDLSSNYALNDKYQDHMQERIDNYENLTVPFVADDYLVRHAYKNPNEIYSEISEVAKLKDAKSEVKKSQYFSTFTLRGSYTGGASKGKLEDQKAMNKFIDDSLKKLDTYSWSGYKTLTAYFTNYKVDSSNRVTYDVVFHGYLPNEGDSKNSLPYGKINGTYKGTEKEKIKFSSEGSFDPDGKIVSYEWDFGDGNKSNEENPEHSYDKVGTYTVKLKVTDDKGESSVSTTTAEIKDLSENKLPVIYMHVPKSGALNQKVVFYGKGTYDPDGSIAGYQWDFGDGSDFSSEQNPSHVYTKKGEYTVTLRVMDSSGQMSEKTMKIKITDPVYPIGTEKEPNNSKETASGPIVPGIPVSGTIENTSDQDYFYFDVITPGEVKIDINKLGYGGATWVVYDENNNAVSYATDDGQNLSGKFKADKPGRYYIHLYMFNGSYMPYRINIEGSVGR

hyaluronidase = assay: Anti-hyaluronidase activity (N-acetylglucosamine liberated from hyaluronic acid); format: biochemical; conditions: Mangifera extract 1% dry extract; heparin Sigma 10 USP/ml
Description: Anti-Hyaluronidase Activity (determined according to Jose L. Reissig, Jack L. Stominger and Luis F. Leloior, 05.12.1955).
The N-acetylglucosamine liberated after 45 minutes during the reaction of the hyaluronidase with hyaluronic acid is measured using a spectrophotometer. A process for reducing the anhydrous sugars, which in acid medium are converted to furan derivatives, is used; the said sugars react with para-dimethylaminobenzaldehyde to form a coloured complex.
The activity is expressed in μg of N-acetylglucosamine formed per minute.
The anti-hyaluronidase activity is expressed as a quantity of extract for obtaining 50% inhibition.
Anti-Hyaluronidase Activity Determined in vitro (Jose L. Reissig, Jack L. Strominger and Luis F. Leloir, J. Biol.--Chem. 217, 960-966, 1953).
The anti-hyaluronidase activity is expressed as quantity of extract for obtaining 50% inhibition. The results are plotted in Figure 5b.

| Compound | photostability (resistance to irradiation, half-life time) [1] | anti-free radical activity relative to rutin reference solution [2] [times] | phototoxicity (Phototoxicity check) | IC50 (pancreatic elastase) [µM] | solubility in alkaline liquids (Solubility; alkaline liquids) | solubility in cold water (Solubility; cold water) | UV absorption maximum corresponding to the zone of UVA rays ([3]; UVA zone) | UV absorption maximum corresponding to UVB rays ([3]; UVB zone) | IC50 [4] [µM] | half-inhibition volume IV50 (anti-hyaluronidase) (hyaluronidase) [µL] |
| --- | --- | --- | --- | --- | --- | --- | --- | --- | --- | --- |
| O=c1c2cc(O)c(O)cc2oc2cc(O)c([C@@H]3O[C@H](CO)[C@@H](O)[C@H](O)[C@H]3O)c(O)c12 [mangiferine, C-glucoside of 1,3,6,7-tetrahydroxy xanthone] | equally resistant to irradiation, with a very similar half-life time | 4 | absence of phototoxicity | ~23.7 | soluble | very sparingly soluble | around 360 nm | around 320 nm | ~118 | – |
| heparin | – | – | – | – | – | – | – | – | – | 380 |
